System: acetylated α-tubulin in HREC
Assay: Immunofluorescence staining for acetylated α-tubulin in HREC
Format: cell-based, human
Conditions: 3 hours
Procedure: HREC were grown on glass bottom 24-well tissue culture plates (Cellvis, Mountain View, Calif.) coated with 2% gelatin in EGM-2. The medium was then exchanged with a combination of 500 μL saline, 2× working dilutions of compounds to be tested prepared in saline, or LMWFHSA together with 500 μl EGM-2 and incubated for the indicated times. Following treatment, the cells were fixed using 10% neutral buffered formalin for 10 minutes and permeabilized with 0.1% Triton X-100 in PBS for 5 minutes. 4% goat serum (ThermoFisher Scientific) prepared in PBS was used to block the cells for 1 hour then the cells were exposed to anti-acetylated α-tubulin clone 6-11B-1 antibody (1:1000; Santa Cruz Biotechnology, Santa Cruz, Calif.) in blocking solution overnight at 4° C. Alexa fluor 488 conjugated anti-mouse IgG (1:1000; Invitrogen, Carlsbad, Calif.) was then added for 1 hour followed by DAPI counter staining (300 nM in PBS; ThermoFisher Scientific) for 5 minutes. Randomly selected frames were photographed on an inverted microscope (Zyla sCMOS camera; Andor, South Windsor, Conn. and eclipse Ti; Nikon, Melville, N.Y.) and fluorescent intensity measured using ImageJ software (http://imagej.nih.gov/ij) (Schneider C A, et al. NIH Image to ImageJ: 25 years of image analysis. Nature methods 2012; 9:671-675). For normalization, the number of DAPI staining nuclei was determined for each frame and data presented as median FU/DAPI objects.

Compound | inhibition at 10 µM (Homo sapiens, 10 μM LY294002 with LMWFHSA, four experiments in triplicate, 95% CI 29-19, read-out: reduction of LMWFHSA-induced α-tubulin acetylation (percent inhibition)) [%] | increase of α-tubulin acetylation versus saline-DMSO controls (10 μM SB203580 with LMWFHSA, 95% CI 63-51) [%] | increase of α-tubulin acetylation versus LMWF5A-DMSO treated cells (10 μM SB203580 with LMWFHSA, 95% CI 236-208) [%]
O=c1cc(N2CCOCC2)oc2c(-c3ccccc3)cccc12 [LY294002] | 24 |  | 
C[S+]([O-])c1ccc(-c2nc(-c3ccncc3)c(-c3ccc(F)cc3)[nH]2)cc1 (stereo not drawn) [SB203580] |  | 57 | 222

From patent publication US20190240296A1, “TREATMENT OF DISEASES MEDIATED BY VASCULAR HYPERPERMEABILITY” (AMPIO PHARMACEUTICALS, INC., priority 2016, published 2019)
